Where two headings read alike, the source gives them in different places. Square brackets hold non-standard residues; d marks the D form. Peptide text beside a SMILES is read from it. * marks the point of attachment. dCba = N[C@H](CC1CCC1)C(=O)O; Moc = COC(=O)*
Tests used:
plasmin (PL) = plasmin (PL) (Homo sapiens, UniProt P00747); test: fibrin-plate method, plasmin; format: biochemical; conditions: for IC50: fibrin plate, hydrolysed area reduced to 50% of control; for B: relative efficiency, PL: related to the activity of C1 (1/IC50 = 1)
Text: (§1) The inhibitory effect of the new compounds of the invention on plasmin (PL) as well as on plasmin formation induced by tissue plasminogen activator (tPA) and urokinase (UK) was examined by the fibrin-plate method [D. Bagdy et al.: Thromb. Haemost. 67, 325 (1992)]. Compounds C1 and C5 served as controls. […] V. Jackson et al.: J. Cardiovasc. Pharmacol. 21, 587 (1993))]. In Table 4 the results obtained with the new compounds 1 and 2 as well as those with controls C1 and C5 are presented as an example.

[1] = target: T1, fibrin gel-bound thrombin (Homo sapiens, UniProt P00734); test: inhibition of fibrin gel-bound thrombin (Methods M4, M5); format: biochemical; conditions: human fibrinogen clotted with human thrombin; Tos-Gly-Pro-Arg-pNA substrate
T1 construct: purchased SIGMA
Procedure: (§2) Plasma-clot was obtained by recalcificating platelet-rich human plasma, and fibrin gel by clotting human fibrinogen with human thrombin. For the activity measures of fXa and thrombin Z-D-Arg-Gly-Arg-pNA or Tos-Gly-Pro-Arg-pNA substrates were used in agreement with Methods M1-M3.
Preparation of Fibrin Clots
a) To each reaction vessel 200 μl of human fibrinogen (SIGMA), 25 μl of 25 NIH/E/ml human thrombin (SIGMA) and 40 μl of 100 mM CaCl2 solution is placed and the mixtures are allowed to stand for 1 hour at 20-22° C. The fibrin clots are washed with isotonic NaCl-solution (3×2 ml) under gentle stirring to remove traces of thrombin and sedimented for 5 min. The effectiveness of the washing can be checked by the method M1/c.
Determination of Inhibition of Fibrin-clot Bound Thrombin
a) 0.1-1.0-10 and 100 μg/ml solutions are made from the peptide inhibitors with Hepes/NaCl buffer (0.001 M Hepes and 0.1 M NaCl, pH=7.4).
b) Measurements are continued according to M3/b.

clot-bound thrombin = target: T2, clot-bound thrombin (Homo sapiens, UniProt P00734); test: inhibition of plasma clot-bound thrombin (Methods M1, M3); format: biochemical; conditions: clot from platelet-rich human plasma; Tos-Gly-Pro-Arg-pNA substrate
T2 construct: from tissue; host or cells: clot of recalcified human platelet-rich plasma
Procedure: as §2
Preparation of Clots from Human Plasma
a) Platelet-rich plasma is prepared by centrifuging a 9:1 mixture of human blood and 3.8% sodium citrate solution for 5 min. at 240×g.
b) 200 μl platelet-rich plasma and 80 μl 40 mM CaCl2 solution are allowed to stand at room temperature for 1 hour. The thus-formed clot is washed with 6×2 ml of 0.9% NaCl solution with gentle stirring to remove the residual enzymes (thrombin and factor Xa). The washing medium is assayed for thrombin-like activity as follows:
c) To 400 μl of washing medium 100 μl of 1 mM Tos-Gly-Pro-Arg-pNA substrate solution is added, the mixture is incubated for 30 min at 37° C., then the reaction is stopped with 100 μl of 50% acetic acid. From this mixture 150 μl aliquots are applied onto a 96-well microtitre plate and the extinction coefficients are measured at 405 nm (ELISA READER SLT Laborinstrument GmbH, Austria). In case of efficient washing the extinction coefficient is smaller than 5% of that of the control.
Determination of the Inhibition of Clot-bound Thrombin
a) Solutions are made from the peptide inhibitors according to Method M2/a.
b) After draining off the washing medium the clots (Method M1) are mixed with 400 μl of peptide solution (3 parallel samples with each concentration), then the samples are incubated for 5 min. at 37° C. together with a separate 400 μl buffer serving as control. Then 100 μl […] 1 mM Tos-Gly-Pro-Arg-pNA substrate solution is added and the incubation continued for further 30 min. at 37° C. The experiment is continued according to M2/c.

citrate plasma [2] = test: prothrombin time (PT) plasma clotting test; format: biochemical
Procedure: (§3) Anticoagulant activity (i.e. inhibition of the proteolytic reactions in the process) is measured by anticoagulant tests, e.g. in the thrombin time (TT), activated partial thromboplastin time (APTT) and prothrombin time (PT) tests [E. J. W. Bovie et al., Mayo Clinic Laboratory Manual of Haemostasis; W. B. Saunders Co., Philadelphia (1971)]. Plasma, inhibited in spontaneous coagulation, e.g. citrate-plasma, is made to coagulate and the required coagulation time is measured. Upon the action of anticoagulants the coagulation time is prolonged proportionally to the inhibition of the reaction(s) in the process. The anticoagulant effect can be characterised by the substance concentration required to prolong the coagulation time twofold compared to the control (IC50). The effect of anticoagulants on individual coagulant proteases is measured by the amidolytic method [R. Lottenberg et al., Methods in Enzymol. 80, 341 (1981); G. Cleason, Blood Coagulation and Fibrinolysis 5, 411 (1994)]. The isolated active factor (e.g. thrombin, fXa) and its chromogen or fluorogen peptide-amide substrate are reacted in the presence or absence of the inhibitor, resp. The enzyme inhibiting action is characterised by the inhibitory constant (IC50) measured during amidolysis.
(§4) In the TT test coagulation is initiated by the thrombin added to the citrate plasma. In the system 22 pmol/ml of thrombin is functioning and its inhibition can be measured on the fibrinogen (one of the natural substrates of thrombin) in the presence of plasma components. In the APTT and PT tests the full coagulation process takes place. Depending on the activator fX is activated either by the extrinsic or the intrinsic pathway. The generated fXa activates prothrombin to thrombin which, in turn, triggers plasma coagulation. The coagulation time is prolonged if the enzymes or one of them is inhibited by the inhibitor. In the APTT and PT tests at most 40 pmol/ml Xa can be generated (this is the full amount of factor X present in both systems) while 150 pmol/ml (APTT) and 350 pmol/ml (PT) of thrombin are generated [B. Kaiser et al., Thromb. Res. 65, 157 (1992)].
(§5) The in vitro anticoagulant effects of the compounds of general formula (I) was measured by the prothrombin time (PT), activated partial thromboplastin time (APTT) and thrombin time (TT) tests [D. Bagdy et al., Thromb. Haemost. 67, 325 (1992)]. The fxa-inhibiting effect of the compounds was also determined using the Bz-Ile-Glu-Gly-Arg-pNA chromogen substrate (see method M6).

isolated human fXa = target: T3, isolated human fXa (Homo sapiens, UniProt P00742); test: fXa inhibition in solution, amidolytic method on Bz-Ile-Glu-Gly-Arg-pNA chromogen substrate (Method M6); format: biochemical; conditions: for IC50: isolated human fXa, Bz-Ile-Glu-Gly-Arg-pNA
T3 construct: The isolated active factor (e.g. thrombin, fXa) and its chromogen or fluorogen peptide-amide substrate are reacted; purchased SIGMA
Procedure: as §3, §5
Determination of Factor Xa Inhibition in Solution on a 96-well Microtitre Plate
a) By means of phosphate buffer (0.1M sodium phosphate and 0.05M sodium chloride, pH=7.4) 1.3 E/ml solution is prepared from human factor Xa (SIGMA), and 0.1-1.0-10 and 100 μg/ml solutions from the peptide inhibitors. The Bz-Ile-Glu-Gly-Arg-pNA substrate is used in distilled water solution ([…]).
b) From the control and the peptide inhibitor solutions (3 parallel samples of each concentration) 30-30 μl aliquots are placed into the wells. 30 μl of factor Xa, 90 μl of buffer and 150 μl of substrate are added to the peptide solution and the extinction is determined after 10 min. at 405 nm. Thereafter the steps are the same as in M2/c.

citrate plasma [3] = test: activated partial thromboplastin time (APTT) plasma clotting test; format: biochemical
Procedure: as §3, §4, §5

[4] = target: tissue plasminogen activator (tPA) (Homo sapiens, UniProt P00750); test: fibrin-plate method, plasmin formation induced by tPA; format: biochemical; conditions: for IC50: fibrin plate, hydrolysed area reduced to 50% of control; for B: relative efficiency, tPA: related to the activity of C1 (1/IC50 = 1)
Text: as §1

urokinase (UK) = urokinase (UK) (Homo sapiens, UniProt P00749); test: fibrin-plate method, plasmin formation induced by urokinase; format: biochemical; conditions: for IC50: fibrin plate, hydrolysed area reduced to 50% of control; for B: relative efficiency, UK: related to the activity of C1 (1/IC50 = 1)
Text: as §1

thrombin = thrombin (Homo sapiens, UniProt P00734); test: thrombin time (TT) plasma clotting test; format: biochemical
Procedure: as §3, §4, §5

[5] = C. V. Jackson et al. 1993; cited from earlier work
[6] = Table 3, twofold prolongation compared to control, read-out: A: anticoagulant IC50, PT
[7] = Table 3, read-out: B: fXa inhibiting IC50
[8] = Table 3, twofold prolongation compared to control, read-out: A: anticoagulant IC50, APTT
[9] = Table 3, twofold prolongation compared to control, read-out: A: anticoagulant IC50, TT
[10] = Table 2, concentration prolonging clotting time twofold, read-out: A: anticoagulation IC50, PT
[11] = Table 2, read-out: B: fXa inhibiting effect IC50
[12] = Table 2, concentration prolonging clotting time twofold, read-out: A: anticoagulation IC50, APTT
[13] = Table 2, concentration prolonging clotting time twofold, read-out: A: anticoagulation IC50, TT

Chain of tissue plasminogen activator (tPA) (P00750 36-562, species assumed): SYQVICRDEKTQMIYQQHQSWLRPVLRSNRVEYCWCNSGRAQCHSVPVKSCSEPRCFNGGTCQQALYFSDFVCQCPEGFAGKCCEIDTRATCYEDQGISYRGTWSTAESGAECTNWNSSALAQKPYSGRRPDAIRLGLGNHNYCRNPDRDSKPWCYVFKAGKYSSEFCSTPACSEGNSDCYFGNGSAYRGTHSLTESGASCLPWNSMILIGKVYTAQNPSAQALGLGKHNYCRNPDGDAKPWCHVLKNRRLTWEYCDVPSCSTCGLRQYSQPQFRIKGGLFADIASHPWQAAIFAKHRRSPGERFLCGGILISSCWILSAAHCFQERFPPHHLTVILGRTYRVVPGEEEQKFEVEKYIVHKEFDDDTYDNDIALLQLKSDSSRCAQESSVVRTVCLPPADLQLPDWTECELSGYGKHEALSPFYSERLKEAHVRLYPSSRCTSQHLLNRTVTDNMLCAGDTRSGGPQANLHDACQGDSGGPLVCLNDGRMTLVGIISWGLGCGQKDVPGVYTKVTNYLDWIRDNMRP
Chain of plasmin (PL) (P00747 581-810 limits assumed, species assumed): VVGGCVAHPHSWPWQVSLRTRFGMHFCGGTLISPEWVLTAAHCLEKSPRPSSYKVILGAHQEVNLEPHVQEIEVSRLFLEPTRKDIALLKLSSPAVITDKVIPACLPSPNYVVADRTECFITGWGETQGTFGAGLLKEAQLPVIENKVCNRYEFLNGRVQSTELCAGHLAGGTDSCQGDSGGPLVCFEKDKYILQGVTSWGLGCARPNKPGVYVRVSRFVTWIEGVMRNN
Chain of plasmin (PL) (P00747 97-580 partner limits assumed, species assumed): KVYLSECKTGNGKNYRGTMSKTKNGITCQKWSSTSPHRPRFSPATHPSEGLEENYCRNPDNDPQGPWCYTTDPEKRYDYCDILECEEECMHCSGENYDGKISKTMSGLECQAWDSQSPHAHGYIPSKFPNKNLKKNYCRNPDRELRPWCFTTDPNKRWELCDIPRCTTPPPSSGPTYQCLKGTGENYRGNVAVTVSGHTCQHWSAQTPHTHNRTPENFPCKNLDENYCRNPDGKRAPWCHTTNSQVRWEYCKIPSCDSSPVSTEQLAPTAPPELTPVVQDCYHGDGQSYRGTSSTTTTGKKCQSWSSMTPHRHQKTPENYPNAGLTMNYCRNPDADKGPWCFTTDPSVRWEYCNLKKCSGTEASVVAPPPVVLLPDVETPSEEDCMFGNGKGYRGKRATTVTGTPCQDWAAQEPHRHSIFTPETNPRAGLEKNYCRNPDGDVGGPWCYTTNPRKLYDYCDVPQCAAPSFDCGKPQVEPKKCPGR
T3 sequence (P00742 235-488 limits assumed): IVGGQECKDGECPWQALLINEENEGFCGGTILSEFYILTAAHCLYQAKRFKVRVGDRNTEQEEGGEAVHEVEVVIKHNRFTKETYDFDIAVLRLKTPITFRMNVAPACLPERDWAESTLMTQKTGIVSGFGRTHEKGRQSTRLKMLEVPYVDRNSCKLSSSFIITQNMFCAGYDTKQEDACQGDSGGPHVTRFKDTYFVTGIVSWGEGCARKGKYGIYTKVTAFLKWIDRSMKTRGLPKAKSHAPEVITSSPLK
T3 sequence (P00742 41-179 partner limits assumed): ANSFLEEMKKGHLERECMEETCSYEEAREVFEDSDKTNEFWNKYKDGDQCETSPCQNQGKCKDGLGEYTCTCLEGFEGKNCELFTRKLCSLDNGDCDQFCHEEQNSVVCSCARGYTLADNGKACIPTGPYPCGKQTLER

COC(=O)N[C@H](CC1CCC1)C(=O)N1CCC[C@H]1C(=O)N[C@H](C=O)CCCNC(=N)N [Example 2, methoxycarbonyl-3-cyclobutyl-D-alanyl-L-prolyl-L-arginine aldehyde] (Moc-[dCba]-Pro-Arg-aldehyde)
IC50 (plasmin (PL)): 235000 nM
B: relative efficiency, PL (plasmin (PL)): 0.23
activity against PL, times lower than that of compound C5 (plasmin (PL); text b147, first of three enzymes): 3.2 times
IC50 [1]: 640 nM
IC50 (clot-bound thrombin): 680 nM
IC50 (citrate plasma [2]; [6]): 1120 nM
IC50 (isolated human fXa; [7]): 388 nM
IC50 (citrate plasma [3]; [8]): 250 nM
IC50 [4]: 92000 nM
B: relative efficiency, tPA [4]: 1.4
activity against tPA, times lower than that of compound C5 ([4]; text b147, second of three enzymes): 4.5 times
IC50 (urokinase (UK)): 153000 nM
B: relative efficiency, UK (urokinase (UK)): 0.5
activity against UK, times lower than that of compound C5 (urokinase (UK); text b147, third of three enzymes): 39 times
IC50 (thrombin; [9]): 110 nM

CCOC(=O)NC(CC1CCC1)C(=O)N1CCC[C@H]1C(=O)N[C@H](C=O)CCCNC(=N)N (mixture of isomers) [Example C8, Ethoxycarbonyl-3-cyclobutyl-DL-alanyl-L-prolyl-L-arginine aldehyde]
IC50 (citrate plasma [2]; [6]): 1490 nM
IC50 (isolated human fXa; [7]): 68 nM
IC50 (citrate plasma [3]; [8]): 500 nM
IC50 (thrombin; [9]): 130 nM

CCOC(=O)NC(C(=O)N1CCC[C@H]1C(=O)N[C@H](C=O)CCCNC(=N)N)C1CCC1 (mixture of isomers) [Example C10, Ethoxycarbonyl-DL-cyclobutyl-glycyl-L-prolyl-L-arginine aldehyde]
IC50 (citrate plasma [2]; [6]): 6150 nM
IC50 (isolated human fXa; [7]): 82 nM
IC50 (citrate plasma [3]; [8]): 770 nM
IC50 (thrombin; [9]): 880 nM

CC(C)(C)OC(=O)N[C@H](Cc1ccccc1)C(=O)N1CCC[C@H]1C(=O)N[C@H](C=O)CCCNC(=N)N [Example C5, BOC-D-Phe-Pro-Arg-H]
B: relative efficiency, PL (plasmin (PL)): 4.5
IC50 (citrate plasma [2]; [10]): 2270 nM
IC50 (isolated human fXa; [11]): 910 nM
fXa IC50, times lower than C1 (isolated human fXa; text b89): 10 times
IC50 (citrate plasma [3]; [12]): 760 nM
B: relative efficiency, tPA [4]: 22.0
B: relative efficiency, UK (urokinase (UK)): 27.3
antifibrinolytic effect in vivo [5]: well detectable
IC50 (thrombin; [13]): 200 nM

CCOC(=O)NC(CC1CCCC1)C(=O)N1CCC[C@H]1C(=O)N[C@H](C=O)CCCNC(=N)N (mixture of isomers) [Example C9, Ethoxycarbonyl-3-cyclopentyl-DL-alanyl-L-prolyl-L-arginine aldehyde]
IC50 (citrate plasma [2]; [6]): 1900 nM
IC50 (isolated human fXa; [7]): 43 nM
IC50 (citrate plasma [3]; [8]): 480 nM
IC50 (thrombin; [9]): 260 nM

COC(=O)N[C@H](Cc1ccccc1)C(=O)N1CCC[C@H]1C(=O)N[C@H](C=O)CCCNC(=N)N [Example C7, Methoxycarbonyl-3-phenyl-D-alanyl-L-prolyl-L-arginine aldehyde]
IC50 (citrate plasma [2]; [10]): 1960 nM
IC50 (isolated human fXa; [11]): 130 nM
IC50 (citrate plasma [3]; [12]): 290 nM
IC50 (thrombin; [13]): 200 nM

CCOC(=O)N[C@H](CC1CCCC1)C(=O)N1CCC[C@H]1C(=O)N[C@H](C=O)CCCNC(=N)N [Example 4, Ethoxycarbonyl-3-cyclopentyl-D-alanyl-L-prolyl-L-arginine aldehyde]
IC50 (plasmin (PL)): 98000 nM
B: relative efficiency, PL (plasmin (PL)): 0.55
IC50 [1]: 670 nM
IC50 (clot-bound thrombin): 490 nM
IC50 (citrate plasma [2]; [6]): 1410 nM
IC50 (isolated human fXa; [7]): 27 nM
IC50 (citrate plasma [3]; [8]): 240 nM
IC50 [4]: 38000 nM
B: relative efficiency, tPA [4]: 3.5
IC50 (urokinase (UK)): 46000 nM
B: relative efficiency, UK (urokinase (UK)): 1.8
IC50 (thrombin; [9]): 100 nM

CCOC(=O)N[C@H](Cc1ccccc1)C(=O)N1CCC[C@H]1C(=O)N[C@H](C=O)CCCNC(=N)N [Example C6, Ethoxycarbonyl-3-phenyl-D-alanyl-L-prolyl-L-arginine aldehyde]
IC50 (citrate plasma [2]; [6]): 1910 nM
IC50 (isolated human fXa; [7]): 917 nM
IC50 (citrate plasma [3]; [8]): 380 nM
IC50 (thrombin; [9]): 130 nM

— US6235707A, “Anticoagulant peptidyl-arginine aldehyde derivatives” (Gyogyszerkutato Intezet Kft., priority 1996, dated 2001)
